The results in this text go back to US7501410B2, “Methods of inhibiting BTK and SYK protein kinases” (Roche Palo Alto LLC, priority 2006, dated 2009).

Assay [1] concerns the target T1, Bruton's Tyrosine Kinase (Btk) (Homo sapiens, UniProt Q06187).
T1 construct: 5-10 nM Btk enzyme (His-tagged, full-length); His tag
The assay is described as follows: Determination of IC50 of Bruton's Tyrosine Kinase (Btk) inhibition, 33P filtration assay. Type of assay: biochemical. As to conditions: His-tagged full-length Btk, 100 μM ATP. The source says: Determination of IC50 of Bruton's Tyrosine Kinase (Btk) Inhibition
The assay is a capture of radioactive ^33P phosphorylated product through filtration. The interactions of Btk, biotinylated SH2 peptide substrate (Src homology), and ATP lead to phosphorylation of the peptide substrate. Biotinylated product is bound streptavidin sepharose beads. All bound, radiolabeled products are detected by scintillation counter.
Plates assayed are 96-well polypropylene (Greiner) and 96-well 1.2 μm hydrophilic PVDF filter plates (Millipore). Concentrations reported here are final assay concentrations: 10-100 μM compounds in DMSO (Burdick and Jackson), 5-10 nM Btk enzyme (His-tagged, full-length), 30 μM peptide substrate (Biotin-Aca-[…]-NH2), 100 μM ATP (Sigma), 8 mM imidazole (Sigma, pH 7.2), 8 mM glycerol-2-phosphate (Sigma), 200 μM EGTA (Roche Diagnostics), 1 mM MnCl2 (Sigma), 20 mM MgCl2 (Sigma), 0.1 mg/ml BSA (Sigma), 2 mM DTT (Sigma), 1 μCi ^33P ATP (Amersham), 20% streptavidin sepharose beads (Amersham), 50 mM EDTA (Gibco), 2 M NaCl (Gibco), 2 M NaCl w/1% phosphoric acid (Gibco), microscint-20 (Perkin Elmer).
IC50 determinations are calculated from 10 data points per compound utilizing data produced from a standard 96-well plate assay template. One control compound and seven unknown inhibitors were tested on each plate and each plate was run twice. Typically, compounds were diluted in half-log starting at 100 μM and ending at 3 nM. The control compound was staurosporine. Background was counted in the absence of peptide substrate. Total activity was determined in the presence of peptide substrate. The following protocol was used to determine BTK inhibition.
1) Sample preparation: The test compounds were diluted at half-log increments in assay buffer (imidazole, glycerol-2-phosphate, EGTA, MnCl2, MgCl2, BSA).
2) Bead preparation • a.) rinse beads by centrifuging at 500 g • b.) reconstitute the beads with PBS and EDTA to produce a 20% bead slurry
3) Pre-incubate reaction mix without substrate (assay buffer, DTT, ATP, ^33P ATP) and mix with substrate (assay buffer, DTT, ATP, ^33P ATP, peptide substrate) 30° C. for 15 min.
4) To start assay, pre-incubate 10 μL BTK in enzyme buffer (imidazole, glycerol-2-phosphate, BSA) and 10 μL of test compounds for 10 min at RT.
5) Add 30 μL reaction mixture without or with substrate to BTK and compounds.
6) Incubate 50 μL total assay mix for 30 min at 30° C.
7) Transfer 40 μL of assay to 150 μL bead slurry in filter plate to stop reaction.
8) Wash filter plate after 30 min, with following steps • a. 3 ×250 μL NaCl • b. 3×250 μL NaCl containing 1% phosphoric acid • c. 1×250 μL H2O
9) Dry plate for 1 h at 65° C. or overnight at RT
10) Add 50 μL microscint-20 and count ^33P cpm on scintillation counter.
Calculate percent activity from raw data in cpm percent activity=(sample−bkg)/(total activity−bkg)×100

The target in assay [2] is T2, Spleen Tyrosine Kinase (SYK) aa 360-635 (Homo sapiens, UniProt P43405).
T2 construct: truncated construct of Spleen Tyrosine Kinase aa 360-635; made in house
Put plainly: Determination of IC50 of Spleen Tyrosine Kinase (SYK) inhibition, 33P kinase assay. Type of assay: biochemical. As to conditions: recombinant human SYK360-635, 20 μM ATP; read-out: IC50 (μM) SYK Assay. The method, then:
Determination of IC50 of Spleen Tyrosine Kinase (SYK) Inhibition
The SYK kinase assay is a standard kinase assay adapted to a 96 well plate format. This assay is performed in 96-well format for IC50 determination with 8 samples which represented 10 half log dilutions and a 40 μL reaction volume. The assay measures the incorporation of radiolabeled ^33P γATP into an N-terminally biotinylated peptide substrate, derived from naturally occurring phosphoacceptor consensus sequence (Biotin-11aa DY*E). Phosphorylated products were detected upon termination of reactions with EDTA and the addition of Streptavidin coated beads. • Assay plates: 96-well MultiScreen 0.65 um filter plates (Millipore Cat. No.: MADVNOB10) • Streptavidin coated beads: Streptavidin Sepharose TM, suspension 5.0 mL, in 50 mM EDTA/PBS diluted (1:100), (Amersham, Cat. No.: 17-5113-01) • Compounds: 10 mM in 100% dimethylsulfoxide (DMSO), final conc.: compound 0.003-100 uM in 10% DMSO • Enzyme: SYK RPA purified, truncated construct of Spleen Tyrosine Kinase aa 360-635, stock solution 1 mg/mL, MW: 31.2 KDa, final conc.:0.0005 μM. • Peptide 1: biotinylated peptide is derived from a naturally occurring phosphor-acceptor consensus sequence (Biotin-[…]), special order from QCB, stock solution 20 mM, final conc.: 5.0 μM. • ATP: Adenosine-5′-triphosphate 20 mM, (ROCHE Cat. No.:93202720), final concentration: 20 μM • Buffer: HEPES: 2-Hydroxyethyl piperazine-2-ethanesulfonic acid (Sigma, Cat. No.: H-3375) final concentration: 50 mM HEPES pH7.5 • BSA: Bovine Serum Albumin Fraction V, fatty acid free (Roche Diagnostics GmbH, Cat. No. 9100221) diluted to a final concentration of 0.1% • EDTA: EDTA stock solution 500 mM, (GIBCO, Cat. No.: 15575-038) final concentration: 0.1 mM • DTT: 1,4-Dithiothreitol (Roche Diagnostics GmbH, Cat. No.: 197777), final conc.: 1 mM • MgCl2×6H2O: MERCK, Cat. No.: 105833.1000, final concentration: 10 mM • Assay Dilution Buffer (ADB): 50 mM HEPES, 0.1 mM EGTA, 0.1 mM Na Vanadate, 0.1 mM β-glycerophosphate, 10 mM MgCl2, 1 mM DTT, 0,1% BSA, pH 7.5 • Bead wash buffer: 10 g/L PBS (Phosphate buffered saline) with 2M NaCl+1% phosphoric acid Experimental Method:
In 40 μL volume, 26 μL of ADB diluted, purified recombinant human SYK360-635 [0.5 nM] was mixed with 4 μL of 10× concentrations of the test compounds, [usually 100 μM-0.003 μM] in [10%] DMSO and the mixture was incubated for 10 min at RT.
The kinase reaction was initiated by the addition of 10 μL 4× substrate cocktail containing the DYE peptide substrate [0 or 5 μM], ATP [20 μM] and […] [2 μCi/rxn]. After incubation at 30° C. for 15 min, the reaction was terminated by the transfer of 25 μL of the reaction sample to a 96 well 0.65 um Millipore MADVNOB membrane/plate containing 200 μL 5 mM EDTA and 20% Streptavidine coated beads in PBS.
The unbound radionucleotides were washed under vacuum with 3×250 μL 2M NaCl; 2×250 μL 2M NaCl+1% phosphoric acid; 1×250 μL H2O. After the last wash membrane/plates were transferred to an adaptor plate, heat dried for 15 min at 60° C., and 50 μL scintillation cocktail was added to each well and 4 h later the amount of radioactivity was counted in a top counter.
The IC50 was calculated using a non-linear curve fit with XLfit software (ID Business Solution Ltd., Guilford, Surrey, UK). […] Representative results are in Table 1.

T1 sequence (Q06187 whole entry): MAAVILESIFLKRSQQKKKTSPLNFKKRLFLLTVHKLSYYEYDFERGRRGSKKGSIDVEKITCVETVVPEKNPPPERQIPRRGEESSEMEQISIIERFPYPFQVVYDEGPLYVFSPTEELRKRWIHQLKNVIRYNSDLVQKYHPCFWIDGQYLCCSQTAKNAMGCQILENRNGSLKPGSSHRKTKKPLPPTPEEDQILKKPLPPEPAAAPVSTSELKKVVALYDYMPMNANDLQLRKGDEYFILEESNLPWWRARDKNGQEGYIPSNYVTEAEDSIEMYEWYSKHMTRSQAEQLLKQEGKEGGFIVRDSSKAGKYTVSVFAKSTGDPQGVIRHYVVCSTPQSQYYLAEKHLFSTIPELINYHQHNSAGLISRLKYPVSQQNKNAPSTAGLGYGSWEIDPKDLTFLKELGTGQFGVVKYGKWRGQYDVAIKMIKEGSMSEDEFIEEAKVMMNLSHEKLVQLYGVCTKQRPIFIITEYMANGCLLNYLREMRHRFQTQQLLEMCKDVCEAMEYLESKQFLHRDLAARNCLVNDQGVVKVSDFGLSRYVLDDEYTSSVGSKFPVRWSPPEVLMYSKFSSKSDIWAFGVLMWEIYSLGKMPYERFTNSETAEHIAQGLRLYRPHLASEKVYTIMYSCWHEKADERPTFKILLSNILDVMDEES

A word on the IC50: it is the point on the concentration scale where inhibition reaches its midpoint. On to `Cc1cc(Nc2nn(CC(F)(F)F)c(=O)c3ccccc23)n[nH]1` [Example A-5, 4-(5-methyl-1H-pyrazol-3-ylamino)-2-(2,2,2-trifluoro-ethyl)-2H-phthalazin-1-one], for which the results for the IC50 in assay [1] and in assay [2] were 8.22 µM and 7.68 µM, respectively.
The matching figures for `Cc1cc(Nc2nn(-c3ccc(C(C)(C)C)cc3)c(=O)c3ccccc23)n[nH]1` [Example A-8, 2-(4-tert-butyl-phenyl)-4-(5-methyl-1H-pyrazol-3-ylamino)-2H-phthalazin-1-one]: 30 µM and 0.552 µM.
For `COc1ccc(Cn2nc(Nc3cc(C)[nH]n3)c3ccccc3c2=O)cc1` [Example A-11, 2-(4-methoxy-benzyl)-4-(5-methyl-1H-pyrazol-3-ylamino)-2H-phthalazin-1-one] the same measures were 9.79 µM and 49.2 µM.
The matching figures for `Cc1cc(Nc2nn(Cc3cc(F)ccc3F)c(=O)c3ccccc23)n[nH]1` [Example A-13, 2-(2,5-difluoro-benzyl)-4-(5-methyl-1H-pyrazol-3-yl-amino)-2H-phthalazin-1-one]: 38.6 µM and 22.9 µM.
For `Cc1cc(Nc2nn(Cc3csc(C)n3)c(=O)c3ccccc23)n[nH]1` [Example A-16, 4-(5-methyl-1H-pyrazol-3-ylamino)-2-(2-methyl-thiazol-4-ylmethyl)-2H-phthalazin-1-one], the IC50 came to 25.2 µM in assay [1] and 87.9 µM in assay [2].
For the molecule `Cc1cc(Nc2nn(Cc3cccnc3)c(=O)c3ccccc23)[nH]n1` [Example A-18, 4-(5-methyl-2H-pyrazol-3-ylamino)-2-pyridin-3-ylmethyl-2H-phthalazin-1-one], in assay [2], the IC50 turned out to be 6.53 µM.
Take `Cc1cc(Nc2nn(Cc3cc(F)cc(F)c3)c(=O)c3ccccc23)n[nH]1` [Example A-21, 2-(3,5-difluoro-benzyl)-4-(5-methyl-1H-pyrazol-3-yl-amino)-2H-phthalazin-1-one]: the half-maximal inhibitory concentration (IC50) is 14.6 µM in assay [1] and greater than 10 µM in assay [2].
On to `Cc1cc(Nc2nn(Cc3ccccn3)c(=O)c3ccccc23)[nH]n1` [Example A-22, 4-(5-methyl-2H-pyrazol-3-ylamino)-2-pyridin-2-ylmethyl-2H-phthalazin-1-one], for which the IC50 in assay [2] was determined as 78.1 µM.
Consider `Cc1cc(Nc2nn(Cc3cccc(C(=O)O)c3)c(=O)c3ccccc23)n[nH]1` [Example A-24, 3-[4-(5-methyl-1H-pyrazol-3-ylamino)-1-oxo-1H-phthalazin-2-ylmethyl]-benzoic acid], for which the results for the IC50 in assay [1] and in assay [2] were 1.75 µM and 24.9 µM, respectively.
Regarding `Cc1cc(Nc2nn(-c3ccc(C(F)(F)F)cc3)c(=O)c3ccccc23)[nH]n1` [Example A-25, 4-(5-methyl-1H-pyrazol-3-ylamino)-2-(4-trifluoromethyl-phenyl)-2H-phthalazin-1-one], in assay [2], the IC50 stood at 0.525 µM.
For `Cc1cc(Nc2nn(-c3ccc(Cl)cc3)c(=O)c3ccccc23)n[nH]1` [Example B-1, 2-(4-Chloro-phenyl)-4-(5-methyl-1H-pyrazol-3-ylamino)-2H-phthalazin-1-one], the half-maximal inhibitory concentration (IC50) came out at 5.03 µM in assay [1] and 1.19 µM in assay [2].
For `Cc1cc(Nc2nn(C(C)C)c(=O)c3cc(F)ccc23)n[nH]1` [Example E-2, 7-Fluoro-2-isopropyl-4-(5-methyl-1H-pyrazol-3-ylamino)-2H-phthalazin-1-one] the same measures were 9.53 µM and 7.61 µM.
As for `Cc1cc(Nc2nn(C(C)C)c(=O)c3ccc(F)cc23)n[nH]1` [Example E-3, 6-Fluoro-2-isopropyl-4-(5-methyl-1H-pyrazol-3-ylamino)-2H-phthalazin-1-one], the IC50 came to 58.2 µM in assay [1] and 87.5 µM in assay [2].
In the case of `Cc1cc(Nc2nn(CC(=O)c3ccccc3)c(=O)c3ccccc23)n[nH]1` [Example E-9, 4-(5-methyl-1H-pyrazol-3-ylamino)-2-(2-oxo-2-phenyl-ethyl)-2H-phthalazin-1-one], the values for the half-inhibitory concentration (IC50) in assay [1] and in assay [2] were 10.4 µM and 7.67 µM, respectively.
The matching figures for `Cc1cc(Nc2nn(C(C)C)c(=O)c3ccc(N4CCOCC4)cc23)n[nH]1` [Example F-2, 2-Isopropyl-4-(5-methyl-1H-pyrazol-3-ylamino)-6-morpholino-2H-phthalazin-1-one]: greater than 100 µM and 36.4 µM.
For `Cc1cc(Nc2nn(C(C)C)c(=O)c3ccc(N(C)C)cc23)n[nH]1` [Example F-7, 2-Isopropyl-4-(5-methyl-1H-pyrazol-3-ylamino)-6-dimethylamino-2H-phthalazin-1-one] the same measures were 14.6 µM and 37.4 µM.
As to `COCc1ccc2c(Nc3cc(C)[nH]n3)nn(C(C)C)c(=O)c2c1` [Example K-1, 2-Isopropyl-7-methoxymethyl-4-(5-methyl-1H-pyrazol-3-ylamino)-2H-phthalazin-1-one], the IC50 in assay [2] came out at 1.25 µM.
On the same count and under the same terms, the value for `Cc1cc(Nc2nn(C(C)C)c(=O)c3ccc(CO)cc23)n[nH]1` [Example M-10, 6-Hydroxymethyl-2-isopropyl-4-(5-methyl-1H-pyrazol-3-yl-amino)-2H-phthalazin-1-one] was 56.9 µM.
